Counter-ions that a name gives are not always drawn.

A word on the EC50: it is the midpoint of the concentration-response curve.

The first experiment has as its system estrogen synthesis. As to the kind of experiment: Estrogen synthesis inhibition in rats (uterine weight and ovarian steroid concentrations). In kind it is in vivo, female Wistar rats. The following applies: 30 ppm in feed (approximately 3 mg/kg/day), ovaries.
Description: Test compounds were administered for seven days either daily by gavage in corn oil or as a component of the diet. Control animals received either corn oil or diet without the test compound. Beginning on the fourth day of the test, all animals treated with the test compound and one half of the control animals were given a subcutaneous injection of 1.0 mg of testosterone propionate in corn oil. The remaining control animals received only an equivalent volume of corn oil.
After two hours, the animals were killed by decapitation. Uteri were isolated, trimmed of extraneous connective tissue, and weighed. […] In the control animals treated with testosterone propionate, estrogens produced by aromatization stimulated the uterus resulting in an increase in weight.
The ovarian steroids were extracted with 1.5 ml of 9:1 (v/v) toluene/ethanol to which had been added 25 to 100 mcg each of unlabelled estradiol, estriol, and estrone, and approximately 1000 dpm of [^14 C]-estradiol. The samples were vortexed, centrifuged at 500×g for 10 minutes, and the organic phase was transferred to a conical vial. Two additional extractions were performed on the residue in the same way. The pooled organic extracts were evaporated for subsequent thin-layer chromatography.
Ovarian proteins were precipitated by the addition of 5.0 ml of ethanol to the remaining aqueous phase. After an overnight incubation at 4° C., the samples were centrifuged at 1500×g for 10 minutes. The supernatant was discarded, and the pellet was dissolved in 0.3N potassium hydroxide.
The organic residue from each above extraction was redissolved in 9:1 (v/v) dichloromethane/methanol. The solution of each sample was applied to separate silica gel thin layer chromatography plates which contained a fluorescent indicator. The plates were developed in the first dimension with 160:38:1.5:0.5 (v/v/v/v) dichloromethane/ethyl acetate/methanol/acetic acid to within 3 cm of the top of the plate. After air-drying, the plate was developed in the second dimension with 180:19:1 (v/v/v) dichloromethane/methanol/ammonium hydroxide. The plate was air-dried and viewed under 254 nm UV light.
The visible spots were marked and the plates were sprayed with primulin (0.001% in 4:1 v/v acetone/water) according to the method of Wright, J. Chromatography, 59, 220 (1971) which allowed for the identification of additional steroids under 365 nm UV light. The spots were scraped from the plate using a glass wool plugged Pasteur pipet attached to a vacuum line. The steroids were eluted directly into scintillation vials by the addition of 0.2 ml of dichloromethane followed by two washes each of 2.0 ml of methanol. The organic solvent was evaporated and 10.0 ml of scintillation fluid (Beckman Ready Solv-NA) was added to the vials. Samples were analyzed by liquid scintillation spectrometry. Corrections were made based on the recoveries of the [^14 C]-steroid. Steroid concentrations are expressed as femtomoles per milligram protein.
Turning to `Clc1ccc(C(c2ccc(Cl)cc2)n2cnnc2)cc1` [4-[bis(4-chlorophenyl)methyl]-4H--1,2,4-triazole], the “Mean Steroid Concentration, estradiol” value was 0.46 femtomoles per milligram of protein and the “Mean Steroid Concentration, estriol” value is reported as 0.60 femtomoles per milligram of protein.

The same experiment, now with this note: 30 ppm in feed (approximately 3 mg/kg/day), testosterone propionate-treated rats.
Turning to `COc1ccccc1C(c1ccccc1)n1ccnc1` (stereo not drawn) [1-[(2-methoxyphenyl)phenylmethyl]-1H--imidazole nitrate], the “Mean Uterine Weight” value turned out to be 176.0 mg.

Consider `Clc1ccc(C(c2ccc(Cl)cc2)n2cnnc2)cc1` [4-[bis(4-chlorophenyl)methyl]-4H--1,2,4-triazole], for which the “Mean Uterine Weight” value is 113.3 mg.

As to `Clc1ccc(C(c2ccc(Cl)cc2)(c2cncnc2)n2ccnc2)cc1` [5-[bis(4-chlorophenyl)-1H--imidazol-1-ylmethyl]pyrimidine], the “Mean Uterine Weight” value is recorded as 107.5 mg.

Staying with this experiment, now noted: 300 ppm in feed (approximately 30 mg/kg/day), ovaries.
`Clc1ccc(C(c2ccc(Cl)cc2)n2cnnc2)cc1` [4-[bis(4-chlorophenyl)methyl]-4H--1,2,4-triazole]: the “Mean Steroid Concentration, estradiol” value is recorded as 0.48 femtomoles per milligram of protein; the “Mean Steroid Concentration, estriol” value is given as 0.64 femtomoles per milligram of protein; the “Mean Steroid Concentration, estrone” value was 0.10 femtomoles per milligram of protein.

Staying with this experiment, now noted: 300 ppm in feed (approximately 30 mg/kg/day), testosterone propionate-treated rats.
As to `COc1ccccc1C(c1ccccc1)n1ccnc1` (stereo not drawn) [1-[(2-methoxyphenyl)phenylmethyl]-1H--imidazole nitrate], the “Mean Uterine Weight” value was 212.6 mg.

For `Clc1ccc(C(c2ccc(Cl)cc2)n2cnnc2)cc1` [4-[bis(4-chlorophenyl)methyl]-4H--1,2,4-triazole], the “Mean Uterine Weight” value stood at 97.3 mg.

As for `Clc1ccc(C(c2ccc(Cl)cc2)(c2cncnc2)n2ccnc2)cc1` [5-[bis(4-chlorophenyl)-1H--imidazol-1-ylmethyl]pyrimidine], the “Mean Uterine Weight” value is 87.6 mg.

The target in another experiment is T1, aromatase (Rattus norvegicus, UniProt P22443).
T1 construct: ovarian microsomes are obtained from rats treated with pregnant mares serum gonadotropin; from tissue; host or cells: ovarian microsomes of rats treated with pregnant mares serum gonadotropin
T1 sequence (P22443 1-508): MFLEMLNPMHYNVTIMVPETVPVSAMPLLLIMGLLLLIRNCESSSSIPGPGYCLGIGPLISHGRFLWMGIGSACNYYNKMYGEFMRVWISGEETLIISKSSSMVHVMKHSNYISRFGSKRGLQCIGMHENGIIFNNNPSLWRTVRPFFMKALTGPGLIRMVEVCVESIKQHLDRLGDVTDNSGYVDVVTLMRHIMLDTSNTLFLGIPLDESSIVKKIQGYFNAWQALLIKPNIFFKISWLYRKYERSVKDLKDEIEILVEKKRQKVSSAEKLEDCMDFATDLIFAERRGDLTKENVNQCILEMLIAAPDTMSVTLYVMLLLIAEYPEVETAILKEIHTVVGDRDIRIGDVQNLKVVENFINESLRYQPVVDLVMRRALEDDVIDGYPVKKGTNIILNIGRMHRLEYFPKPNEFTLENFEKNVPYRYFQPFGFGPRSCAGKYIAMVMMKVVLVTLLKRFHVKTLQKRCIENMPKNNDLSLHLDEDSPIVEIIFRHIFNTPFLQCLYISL
As to the kind of experiment: Aromatase inhibition in the rat ovarian microsome assay. In kind it is biochemical. The following applies: EC50: concentration required to achieve 50% inhibition of aromatase activity, substrate (androstenedione) concentration 0.1 μM.
Description: In this test system, ovarian microsomes are obtained from rats treated with pregnant mares serum gonadotropin. Test compounds are added to reaction vials containing 0.1 μM 4-androstene-3,17-dione, 100,000 dpm 1,2[^3 H]-androstenedione, the microsomes and a NADPH generating system. The concentrations of the inhibitors tested ranged between 0.005 and 10 μM.
On to `FC(F)(F)c1ccc(C(c2ccc(Cl)cc2)(c2cncnc2)n2ccnc2)cc1` (stereo not drawn) [5-[(4-chlorophenyl)-1H--imidazol-1-yl(4-trifluoromethylphenyl)methyl]pyrimidine], for which the response was half-maximal at 0.03 µM (EC50).

In turn, `COc1cccc(Cn2ccnc2)c1` [1-[(3-methoxyphenyl)methyl]-1H--imidazole ethanedioate] gave an EC50 of 1.25 µM.

Consider `Cc1nccn1C(c1ccccc1)(c1ccc(Cl)cc1)c1ccc(Cl)cc1` [1-[bis(4-chlorophenyl)phenylmethyl]-2-methyl-1H--imidazole], for which the half-maximal effective concentration (EC50) was 0.094 µM.

Regarding `Clc1ccc(C(c2ccc(Cl)cc2)(c2ccc(Cl)cc2)n2ccnc2)cc1` [1-tris(4-chlorophenyl)methyl-1H--imidazole], the midpoint of the response, the EC50, lay at 0.27 µM.

In the case of `Fc1ccccc1Cn1ccnc1` [1-[(2-fluorophenyl)methyl]-1H--imidazole nitrate], the EC50 turned out to be 2.65 µM.

Compound `CC(C)(C)C(c1ccc(Cl)cc1)(c1cccnc1)n1ccnc1` (stereo not drawn) [3-(α-tert-butyl-4-chloro-α-imidazol-1-ylbenzyl)pyridine] displayed an EC50 of 0.1 µM.

Compound `c1ccc(CCOc2ccccc2Cn2ccnc2)cc1` [1-[(2-[2-phenylethoxy]phenyl)methyl]-1H--imidazole nitrate] gave an EC50 of 0.086 µM.

Consider `CCCC(c1ccccc1OCc1ccc(Cl)cc1Cl)n1ccnc1` (stereo not drawn) [1-[1-(2-[2,4-dichlorobenzyloxy]phenyl)butyl]-1H--imidazole nitrate], for which the response was half-maximal at 0.125 µM (EC50). This EC50 and that of the compound before are within 1.5-fold of each other.

For `c1ccc(-c2ccc(Cn3ccnc3)cc2)cc1` [1-[(1,1'-biphenyl)-4-ylmethyl]-1H--imidazole hydrochloride], the EC50 is 1.65 µM. Compared with the last compound, the EC50 is about 13-fold higher.

Compound `c1ccc(C2(n3ccnc3)CCCCC2)cc1` [1-(1-phenylcyclohexyl)-1H--imidazole] displayed a concentration for a half-maximal effect (EC50) of 0.093 µM.

Turning to `CCOc1ccccc1C(c1ccccc1)n1ccnc1` (stereo not drawn) [1-[(2-ethoxyphenyl)phenylmethyl]-1H--imidazole nitrate], the EC50 came out at 0.1 µM.

For the compound `Clc1ccccc1C(c1ccccc1Cl)n1cncn1` [1-[bis(2-chlorophenyl)methyl]-1H--1,2,4-triazole], the EC50 was over 5 µM.

`Fc1ccc(C(c2ccc(Br)cc2)n2cncn2)cc1` (stereo not drawn) [1-[(4-bromophenyl)(4-fluorophenyl)methyl]-1H--1,2,4-triazole] showed an EC50 of under 0.05 µM.

Consider `Clc1ccc(Cn2ccnc2)c(Cl)c1` [1-[(2,4-dichlorophenyl)methyl]-1H--imidazole hydrochloride], for which the response was half-maximal at 0.73 µM (EC50).

For `Cc1nccn1C(c1ccccc1)(c1ccc(F)cc1)c1ccc(F)cc1` [1-[bis(4-fluorophenyl)phenylmethyl]-2-methyl-1H--imidazole], the 50% effective concentration (EC50) turned out to be 0.08 µM.

In turn, `Clc1cccc(Cl)c1Cn1ccnc1` [1-[(2,6-dichlorophenyl)methyl]-1H--imidazole hydrochloride] came in with an EC50 of over 5 µM.

`Fc1ccc(C(c2ccccc2)(c2ccc(F)cc2)n2ccnc2)cc1` [1-bis(4-fluorophenyl)phenylmethyl]-1H--imidazole]: the EC50 was 0.04 µM.

On to `Cc1nccn1C(c1ccccc1)(c1ccccc1)c1ccncc1` [4-[(2-methyl-1-imidazol-1-yl)diphenylmethyl]pyridine], for which the EC50 is 0.12 µM.

`CC(C)C(c1cccc2ccccc12)n1ccnc1` (stereo not drawn) [1-[2-methyl-1-(1-naphthalenyl)propyl]-1H--imidazole nitrate] registered an EC50 of 0.41 µM.

In the case of `Clc1ccccc1Cn1ccnc1` [1-(2-chlorobenzyl)imidazole hydrochloride], a half-maximal effect (EC50) was put at 3.5 µM.

With `Fc1ccc(Cn2ccnc2)cc1` [1-[(4-fluorophenyl)methyl]-1H--imidazole nitrate], it took 0.63 µM to reach a half-maximal effect (EC50).

`c1ccc(C2(n3ccnc3)CCCCCC2)cc1` [1-(1-phenylcycloheptyl)-1H--imidazole] returned an EC50 of 0.11 µM.

In the case of `Clc1ccc(C(c2ccccc2)(c2ccc(Cl)cc2)n2cncn2)cc1` [1-[bis(4-chlorophenyl)phenylmethyl]-1H--1,2,4-triazole], the EC50 was found to be 0.11 µM.

In turn, `c1ccc(C(c2ccccc2)(c2cncnc2)n2cncn2)cc1` [5-(diphenyl-1H--1,2,4-triazol-1-ylmethyl)pyrimidine] gave an EC50 of 0.825 µM.

For `COc1ccc(Cn2ccnc2)cc1` [1-[(4-methoxyphenyl)methyl]-1H--imidazole hydrochloride], the response was half-maximal at 2.5 µM (EC50).

`Fc1ccc(C(c2ccc(Cl)cc2)n2cncn2)cc1` (stereo not drawn) [1-[(4-chlorophenyl)(4-fluorophenyl)methyl]-1H--1,2,4-triazole]: the EC50 was under 0.05 µM.

`Clc1ccc(Cn2cncn2)cc1` [1-(4-chlorobenzyl)-1H--1,2,4-triazole] registered an EC50 of over 5 µM.

The compound `Fc1ccc(C(c2ccccc2)(c2ccc(F)cc2)n2cncn2)cc1` [1-[bis(4-fluorophenyl)phenylmethyl]-1H--1,2,4-triazole] registered an EC50 of 0.08 µM.

`CCOc1ccccc1C(CC)n1ccnc1` (stereo not drawn) [1-[1-(2-ethoxyphenyl)propyl]-1H--imidazole nitrate]: the EC50 worked out at 0.14 µM.

Consider `Cc1nccn1C(c1ccccc1)(c1ccccc1)c1ccccc1` [2-methyl-1-tritylimidazole], for which a half-maximal effect (EC50) was put at 1.3 µM.

`Clc1cccc(Cn2ccnc2)c1` [1-(3-chlorobenzyl)imidazole] gave a concentration for a half-maximal effect (EC50) of 3.6 µM.

Take `c1ccc(C(c2ccccc2)(c2ccccc2)n2cncn2)cc1` [1-trityl-1H--1,2,4-triazole]: a half-maximal response (EC50) required 0.31 µM.

In the case of `c1ccc(C(c2ccccc2)(c2ccccn2)n2ccnc2)cc1` [2-(1H--imidazol-1-yldiphenylmethyl)pyridine], the EC50 is under 0.05 µM.

`Clc1cc(Cl)cc(Cn2ccnc2)c1` [1-[(3,5-dichlorophenyl)methyl]-1H--imidazole hydrochloride] showed an EC50 of 0.11 µM. In other words, the sub-micromolar range.

Regarding `Clc1ccc(Cl)c(C(c2cccnc2)(c2cc(Cl)ccc2Cl)n2ccnc2)c1` [3-(bis[2,5-dichlorophenyl]-1H--imidazol-1-ylmethyl)pyridine], the EC50 was found to be 0.21 µM.

As for `Clc1ccc(C(c2ccccc2)(c2ccc(Cl)cc2)n2ccnc2)cc1` [1-[bis(4-chlorophenyl)phenylmethyl]-1H--imidazole], the half-maximal effective concentration (EC50) was 0.11 µM.

Take `FC(F)(F)c1cccc(Cn2ccnc2)c1` [1-[(3-trifluoromethylphenyl)methyl]-1H--imidazole hydrochloride]: the EC50 was 0.39 µM.
